Read-outs that look alike come from different tables or passages of the source.
Molecular target: p300 HAT domain (residues 1287-1666) (Homo sapiens (Human), UniProt Q09472)
Experiment: p300 HAT SPA assay (scintillation proximity assay, acetylation of biotinylated H3(1-21) peptide)
Format: biochemical
Settings: average of at least 2 replicate titrations
Method in brief: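 Purified p300 HAT domain reaction transferred to streptavidin plates to capture biotinylated H3(1-21) peptide, incubated 1.5 hr at RT, and read by scintillation proximity. IC50 values derived from concentration-response data.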

[1] = p300 HAT domain, read-out: P300 HAT SPA IC50
[2] = P300 HAT SPA IC50, p300 HAT domain
[3] = read-out: P300 HAT SPA IC50, p300 HAT domain

Chain of p300 HAT domain (residues 1287-1666) (Q09472 1287-1666): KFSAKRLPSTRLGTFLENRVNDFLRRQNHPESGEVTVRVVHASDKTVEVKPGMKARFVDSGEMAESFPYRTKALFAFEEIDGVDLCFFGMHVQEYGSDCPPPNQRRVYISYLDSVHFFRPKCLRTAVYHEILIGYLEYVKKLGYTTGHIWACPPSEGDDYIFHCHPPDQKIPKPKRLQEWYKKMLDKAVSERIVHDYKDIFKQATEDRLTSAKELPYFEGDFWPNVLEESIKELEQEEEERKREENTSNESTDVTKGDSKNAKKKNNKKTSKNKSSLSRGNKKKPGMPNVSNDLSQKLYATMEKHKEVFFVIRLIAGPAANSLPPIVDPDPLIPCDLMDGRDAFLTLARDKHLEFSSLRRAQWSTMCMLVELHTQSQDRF

SMILES | IC50 [1] [µM] | other results
O=C(c1c[nH]c2cc(-c3cccnn3)ccc12)C(NCCc1ccc(Cl)cc1)c1ccccc1 (single isomer, unassigned) [112 Isomer 1] | 2.03 | 
Cn1cnc(-c2ccc3c(C(=O)C(NCCc4ccc(C#N)cc4)c4ccccc4)c[nH]c3c2)c1 (single isomer, unassigned) [113 Isomer 1] | 1.11 | 
Cn1cc(-c2ccc3c(C(=O)C(NCCc4ccc(C#N)cc4)c4ccccc4)c[nH]c3c2)nn1 (single isomer, unassigned) [114 Isomer 1] | 0.558 | 
Cn1cnc(-c2ccc3c(C(=O)C(NCCc4ccc(S(N)(=O)=O)cc4)c4ccccc4)c[nH]c3c2)c1 (single isomer, unassigned) [115 Isomer 1] | 1.49 | 
Cn1cc(-c2ccc3c(C(=O)C(NCCc4ccc(S(N)(=O)=O)cc4)c4ccccc4)c[nH]c3c2)nn1 (single isomer, unassigned) [116 Isomer 1] | > 5 | 
O=C(c1c[nH]c2cc(-n3ccnc3)ccc12)C(NCCc1ccc(F)cc1)c1ccccc1 (single isomer, unassigned) [117 Isomer 2] | > 30 | 
O=C(c1c[nH]c2cc(-n3cccn3)ccc12)C(NCCc1ccc(F)cc1)c1ccccc1 (single isomer, unassigned) [118 Isomer 1] | > 30 | 
NS(=O)(=O)c1ccc(CCNC(C(=O)c2c[nH]c3cc(-n4ccnc4)ccc23)c2ccccc2)cc1 (single isomer, unassigned) [119 Isomer 1] | > 5 | 
CN1CCN(c2ccc3c(C(=O)C(NCCc4ccc(C#N)cc4)c4ccccc4)c[nH]c3n2)CC1 (single isomer, unassigned) [121 Isomer 1] | 2.2 | 
CN1CCN(c2ccc3c(C(=O)C(NCCc4ccc(C#N)cc4)c4ccccc4)c[nH]c3c2)CC1 (single isomer, unassigned) [122 Isomer 1] | 0.325 | 
CN1CCN(c2ccc3c(C(=O)C(NCCc4ccc(F)cc4)c4ccccc4)c[nH]c3c2)CC1 (single isomer, unassigned) [123 Isomer 1] | 7.61 | 
CN1CCN(c2ccc3c(C(=O)C(NCCc4ccc(S(N)(=O)=O)cc4)c4ccccc4)c[nH]c3c2)CC1 (single isomer, unassigned) [124 Isomer 1] | > 5 | 
N#Cc1ccc(CCNC(C(=O)c2c[nH]c3cc(N4CCCC4)ccc23)c2ccccc2)cc1 (single isomer, unassigned) [125 Isomer 1] | > 2 | 
N#Cc1ccc(CCNC(C(=O)c2c[nH]c3cc(N4CCCC4)ccc23)c2ccccc2)cc1 (single isomer, unassigned) [125 Isomer 2] | 0.224 | 
CN1CCC(Oc2ccc3c(C(=O)C(NCCc4ccc(C#N)cc4)c4ccccc4)c[nH]c3c2)CC1 (single isomer, unassigned) [126 Isomer 1] | 2.84 | 
COCCn1cc(C(=O)C(NCCc2ccc(Cl)cc2)c2ccccc2)c2ccccc21 (single isomer, unassigned) [127 Isomer 1] |  | IC50 [2]: > 60 µM
COCCn1cc(C(=O)C(NCCc2ccc(Cl)cc2)c2ccccc2)c2ccccc21 (single isomer, unassigned) [127 Isomer 2] |  | IC50 [3]: > 60 µM
O=C(c1cn(CCO)c2ccccc12)C(NCCc1ccc(Cl)cc1)c1ccccc1 (single isomer, unassigned) [128 Isomer 1] |  | IC50 [2]: 42.1 µM
O=C(c1cn(CCO)c2ccccc12)C(NCCc1ccc(Cl)cc1)c1ccccc1 (single isomer, unassigned) [128 Isomer 2] |  | IC50 [2]: 13.4 µM
CCn1cc(C(=O)C(NCCc2ccc(Cl)cc2)c2ccccc2)c2ccccc21 (single isomer, unassigned) [129 Isomer 1] |  | IC50 [2]: 11.8 µM
CCn1cc(C(=O)C(NCCc2ccc(Cl)cc2)c2ccccc2)c2ccccc21 (single isomer, unassigned) [129 Isomer 2] |  | IC50 [2]: 1.81 µM
O=C(c1cn(CC(F)(F)F)c2ccccc12)C(NCCc1ccc(Cl)cc1)c1ccccc1 (single isomer, unassigned) [130 Isomer 1] |  | IC50 [2]: > 60 µM
O=C(c1cn(CC(F)(F)F)c2ccccc12)C(NCCc1ccc(Cl)cc1)c1ccccc1 (single isomer, unassigned) [130 Isomer 2] |  | IC50 [3]: > 60 µM
CNC(=O)c1ccc(CCN[C@H](C(=O)c2c[nH]c3cc(-c4cnn(C)c4)ccc23)c2ccccc2)cc1 (single isomer, unassigned) [131 Isomer 1] | > 30 | 
O=C(O)c1ccc(CCNC(C(=O)c2c[nH]c3ccccc23)c2ccccc2)cc1 (single isomer, unassigned) [132 Isomer 2] | 17.9 | 
NC(=O)c1ccc(CCNC(C(=O)c2c[nH]c3ccccc23)c2ccccc2)cc1 (single isomer, unassigned) [133 Isomer 1] | 22.9 | 
CC(Cc1ccc(C(N)=O)cc1)NC(C(=O)c1c[nH]c2ccccc12)c1ccccc1 (single isomer, unassigned) [140 Isomer 1] | > 5 | 
CC(Cc1ccc(C(N)=O)cc1)NC(C(=O)c1c[nH]c2ccccc12)c1ccccc1 (single isomer, unassigned) [140 Isomer 2] | 1.54 | 
CC(Cc1ccc(C(N)=O)cc1)NC(C(=O)c1c[nH]c2ccccc12)c1ccccc1 (single isomer, unassigned) [140 Isomer 3] | > 5 | 
CC(Cc1ccc(C(N)=O)cc1)NC(C(=O)c1c[nH]c2ccccc12)c1ccccc1 (single isomer, unassigned) [140 Isomer 4] | > 5 | 

The next lines start with results.

IC50 [1] [µM] | SMILES | other results
> 60 | CNC(=O)c1ccc(CCNC(C(=O)c2c[nH]c3ccccc23)c2ccccc2)cc1 (single isomer, unassigned) [134 Isomer 1] | 
> 60 | CN(C)C(=O)c1ccc(CCNC(C(=O)c2c[nH]c3ccccc23)c2ccccc2)cc1 (single isomer, unassigned) [135 Isomer 1] | 
8.69 | CNC(=O)Cc1ccc(CCNC(C(=O)c2c[nH]c3ccccc23)c2ccccc2)cc1 (single isomer, unassigned) [136 Isomer 1] | 
> 60 | CNC(=O)Cc1ccc(CCNC(C(=O)c2c[nH]c3ccccc23)c2ccccc2)cc1 (single isomer, unassigned) [136 Isomer 2] | 
21.8 | CN(C)C(=O)Cc1ccc(CCNC(C(=O)c2c[nH]c3ccccc23)c2ccccc2)cc1 (single isomer, unassigned) [137 Isomer 1] | 
> 60 | CN(C)C(=O)Cc1ccc(CCNC(C(=O)c2c[nH]c3ccccc23)c2ccccc2)cc1 (single isomer, unassigned) [137 Isomer 2] | 
4.3 | Cn1cc(-c2ccc3c(C(=O)C(NCCc4ccc(C(=O)O)cc4)c4ccccc4)c[nH]c3c2)cn1 (single isomer, unassigned) [138 Isomer 2] | 
8.29 | Cn1cc(-c2ccc3c(C(=O)C(NCCc4ccc(C(N)=O)cc4)c4ccccc4)c[nH]c3c2)cn1 (single isomer, unassigned) [139 Isomer 1] | 
0.872 | CC(CNC(C(=O)c1c[nH]c2ccccc12)c1ccccc1)c1ccc(C(N)=O)cc1 (single isomer, unassigned) [141 Isomer 1] | 
> 5 | CC(CNC(C(=O)c1c[nH]c2ccccc12)c1ccccc1)c1ccc(C(N)=O)cc1 (single isomer, unassigned) [141 Isomer 2] | 
3.27 | Cn1cc(-c2ccc3c(C(=O)C(NCCc4ccc(C(=O)O)cc4Cl)c4ccccc4)c[nH]c3c2)cn1 (single isomer, unassigned) [142 Isomer 1] | 
9.95 | COc1cccc2c(C(=O)[C@@H](NCCc3ccc(S(N)(=O)=O)cc3)c3ccccc3)c[nH]c12 (single isomer, unassigned) [144 Isomer 1] | 
> 60 | COc1ccc(CCN[C@H](C(=O)c2c[nH]c3c(C(C)C)cccc23)c2ccccc2)cc1 (single isomer, unassigned) [145 Isomer 2] | 
> 30 | CNC(=O)c1cccc2c(C(=O)C(NCCc3ccc(Cl)cc3Cl)c3ccccc3)c[nH]c12 (single isomer, unassigned) [147 Isomer 1] | 
> 30 | CN(C)C(=O)c1cccc2c(C(=O)C(NCCc3ccc(Cl)cc3Cl)c3ccccc3)c[nH]c12 (single isomer, unassigned) [148 Isomer 1] | 
11.6 | CN(C)CCNC(=O)c1cccc2c(C(=O)C(NCCc3ccc(Cl)cc3Cl)c3ccccc3)c[nH]c12 (single isomer, unassigned) [149 Isomer 2] | 
> 30 | COCCNC(=O)c1cccc2c(C(=O)C(NCCc3ccc(Cl)cc3Cl)c3ccccc3)c[nH]c12 (single isomer, unassigned) [150 Isomer 2] | 
11.5 | CNC(=O)c1ccc2c(C(=O)C(NCCc3ccc(Cl)cc3Cl)c3ccccc3)c[nH]c2c1 (single isomer, unassigned) [151 Isomer 1] | 
> 30 | CN(C)C(=O)c1ccc2c(C(=O)C(NCCc3ccc(Cl)cc3Cl)c3ccccc3)c[nH]c2c1 (single isomer, unassigned) [152 Isomer 1] | 
1.2 | N#Cc1ccc(CCNC(C(=O)c2c[nH]c3cc(C(=O)NCC(F)(F)F)ccc23)c2ccccc2)cc1 (single isomer, unassigned) [157 Isomer 1] | 
> 5 | CNC(=O)CCc1ccc2c(C(=O)C(NCCc3ccc(F)cc3)c3ccccc3)c[nH]c2c1 (single isomer, unassigned) [158 Isomer 2] | 
25.2 | O=C(O)CCc1ccc2c(C(=O)C(NCCc3ccc(F)cc3)c3ccccc3)c[nH]c2c1 (single isomer, unassigned) [159 Isomer 1] | 
> 5 | N#Cc1ccc(CCNC(C(=O)c2c[nH]c3cc(CC(=O)O)ccc23)c2ccccc2)cc1 (single isomer, unassigned) [160 Isomer 1] | 
4.01 | N#Cc1ccc(CCNC(C(=O)c2c[nH]c3cc(CC(=O)O)ccc23)c2ccccc2)cc1 (single isomer, unassigned) [160 Isomer 2] | 
3.35 | CC(C)(O)CNC(=O)c1ccc2c(C(=O)C(NCCc3ccc(C#N)cc3)c3ccccc3)c[nH]c2c1 (single isomer, unassigned) [161 Isomer 1] | 
4.86 | N#Cc1ccc(CCNC(C(=O)c2c[nH]c3cc(C(=O)NC4CN(CC(F)(F)F)C4)ccc23)c2ccccc2)cc1 (single isomer, unassigned) [162 Isomer 1] | 

From patent US11414384B2, “P300/CBP hat inhibitors” (Constellation Pharmaceuticals, Inc., priority 2018, dated 2022)
